Laboratory results taken from patent US9149536B2, “Conjugated antimicrobial agents” (priority 2009, dated 2015).
Values after ≈ are worked out from the molar mass of the structure shown. Like-named read-outs stand apart in the source and are kept apart here.

Tests used:
E. coli R477-100 = assay: MIC, double-microdilution, E. coli R477-100; format: cell-based, Escherichia coli; settings: for MIC: Escherichia coli
E. coli ATCC 25922 = assay: MIC, double-microdilution, E. coli ATCC 25922; format: cell-based, Escherichia coli; settings: for MIC: Escherichia coli, ATCC25922
E. coli AG100B = assay: MIC, double-microdilution, E. coli AG100B; format: cell-based, Escherichia coli; settings: for MIC: Escherichia coli, AG100B
From the text: AG100B and AG100A are two kanamycin resistant Escherichia coli strains expressing APH(3′)-I aminoglycoside resistance enzyme.

E. coli AG100A = assay: MIC, double-microdilution, E. coli AG100A; format: cell-based, Escherichia coli; settings: for MIC: Escherichia coli, AG100A
B. subtilis ATCC 6633 [1] = assay: MIC, double-microdilution, B. subtilis ATCC 6633; format: cell-based; settings: for MIC: Bacillus subtilis, ATCC6633
MRSA ATCC 43300 = assay: microbe, parasite or virus in culture; format: cell-based, S. aureus; settings: for MIC: Staphylococcus aureus, read-out: MIC MRSA ATCC 43300
[2] = tested on: bacterial protein synthesis; assay: In vitro coupled transcription/translation assay, E. coli S30 extract; format: biochemical; settings: luciferase readout
Experimental: Protein translation inhibition by the different compounds was quantified in a coupled transcription/translation assay by using E. coli S30 extracts for circular DNA with the pBEST/uc plasmid (Promega), according to the manufacturer's protocol.
Translation reactions (25 μl) that contained variable concentrations of the tested compound were incubated at 37° C. for 60 minutes, cooled on ice for 5 minutes, and diluted with a dilution reagent (tris-phosphate buffer (25 mM, pH 7.8), DTT (2 mM), 1,2-diaminocyclohexanetetraacetate (2 mM), glycerol (10%), Triton X-100 (1%) and BSA (1 mg/ml)) into 96-well plates. The luminescence was measured immediately after the addition of the Luciferase Assay Reagent (50 μl; Promega), and the light emission was recorded with a Victor3™ Plate Reader (Perkin-Elmer). The concentration of half-maximal inhibition (IC50) was obtained from fitting concentration-response curves to the data of at least two independent experiments by using Grafit 5 software (Leatherbarrow, R. J. Erithacus Software Ltd: Horley, U.K., 2001).
(§1) Relaxation assays were conducted with E. coli TopoIV.

B. subtilis ATCC 6633 [3] = assay: microbe, parasite or virus in culture; format: cell-based; settings: for MIC: Bacillus subtilis
Experimental: (§2) In parallel, MIC evolution during these subcultures was compared concomitantly with each new generation, using bacteria harvested from control wells (wells cultured without antimicrobial agent from the previous generation). The relative MIC was calculated for each experiment from the ratio of MIC obtained for a given subculture to that obtained for first-time exposure.

E. coli ATCC 35218 = assay: microbe, parasite or virus in culture; format: cell-based; settings: for MIC: Escherichia coli
Experimental: as §2

E. coli BL21/pETSACG1 = assay: microbe, parasite or virus in culture; format: cell-based; settings: for MIC ratio BL21/pETSACG1 to BL21: MIC resistant strain divided by MIC background strain
Experimental: (§3) For this purpose, exemplary conjugates, according to some embodiments of the present invention, were tested against five isogenic E. coli strains. E. coli (pSF815) and E. coli (pET9d) are laboratory resistant strains derived by transformation of E. coli XL1 blue (background strain) with the pSF815 and pET9d plasmids, respectively. […] The last two isogenic strains used were E. coli BL21 (background strain) and E. coli (pETSACG1). […] These three enzymes are among the most prevalent modes of resistance found in aminoglycosides resistance strains.
(§4) The MIC ratios were calculated by dividing the MIC value against resistant strain to that against the respective background strain.

E. coli BL21 = assay: microbe, parasite or virus in culture; format: cell-based; settings: background strain
Experimental: as §3, §4

E. coli XL1 blue/pET9d = assay: microbe, parasite or virus in culture; format: cell-based; settings: for MIC ratio XL1 blue/pET9d to XL1 blue: MIC resistant strain divided by MIC background strain
Experimental: as §3, §4

E. coli XL1 blue/pSF815 = assay: microbe, parasite or virus in culture; format: cell-based
Experimental: as §3, §4

E. coli XL1 blue = assay: microbe, parasite or virus in culture; format: cell-based; settings: background strain
Experimental: as §3, §4

E. coli TopoIV = target: T1, E. coli TopoIV (Escherichia coli, UniProt P0AFI2+P20083); assay: TopoIV relaxation assay; format: biochemical
T1 construct: purchased Inspiralis Ltd
Experimental: DNA relaxation activity was assayed with supercoiled pBR322 DNA as a substrate (Inspiralis Ltd) according to the manufacturer's protocol. The standard reaction mixture (20 μl) contained 40 mM HEPES-KOH pH 7.6, 100 mM potassium glutamate, 10 mM Mg(OAc)2, 10 mM dithiothreitol, 1 mM ATP, 50 μg/ml albumin, 5 ng/μl […] pBR322, and TopoIV protein. The reaction mixture was incubated at 37° C. for 30 minutes, and then was terminated by addition of 2 μl 0.5 M EDTA, 3.5 μl loading dye and 20 μl chloroform/isoamyl alcohol (24:1) mixture. […] One unit of relaxation activity was defined as the amount of TopoIV required to relax 0.1 μg of plasmid in 30 minutes.
as §1

E. coli DNA gyrase = E. coli DNA gyrase (Escherichia coli, UniProt P0AES4+P0AES6)
APH(3′)-IIIa enzyme = target: T2, APH(3′)-IIIa enzyme (Enterococcus faecalis, UniProt P0A3Y5); format: biochemical; settings: compound as substrate of APH(3′)-IIIa
T2 construct: made in house; host or cells: E. coli BL21 carrying pETSACG1 (inferred)

[4] = R477100, read-out: MIC E. coli R477-100
[5] = Table 4, read-out: MIC E. coli ATCC 25922
[6] = read-out: MIC E. coli AG100B, Table 4, kanamycin resistant, APH(3′)-I
[7] = Table 4, read-out: MIC B. subtilis ATCC 6633
[8] = ATCC6633, read-out: MIC 15th passage, B.subtilis ATCC 6633
[9] = ATCC35218, read-out: MIC 15th passage, E.coli ATCC 35218
[10] = Table 4, kanamycin resistant, APH(3′)-I
[11] = relaxation assay, supercoiled pBR322
[12] = MIC of subculture to MIC upon first exposure

T1 sequence (P0AFI2 whole entry): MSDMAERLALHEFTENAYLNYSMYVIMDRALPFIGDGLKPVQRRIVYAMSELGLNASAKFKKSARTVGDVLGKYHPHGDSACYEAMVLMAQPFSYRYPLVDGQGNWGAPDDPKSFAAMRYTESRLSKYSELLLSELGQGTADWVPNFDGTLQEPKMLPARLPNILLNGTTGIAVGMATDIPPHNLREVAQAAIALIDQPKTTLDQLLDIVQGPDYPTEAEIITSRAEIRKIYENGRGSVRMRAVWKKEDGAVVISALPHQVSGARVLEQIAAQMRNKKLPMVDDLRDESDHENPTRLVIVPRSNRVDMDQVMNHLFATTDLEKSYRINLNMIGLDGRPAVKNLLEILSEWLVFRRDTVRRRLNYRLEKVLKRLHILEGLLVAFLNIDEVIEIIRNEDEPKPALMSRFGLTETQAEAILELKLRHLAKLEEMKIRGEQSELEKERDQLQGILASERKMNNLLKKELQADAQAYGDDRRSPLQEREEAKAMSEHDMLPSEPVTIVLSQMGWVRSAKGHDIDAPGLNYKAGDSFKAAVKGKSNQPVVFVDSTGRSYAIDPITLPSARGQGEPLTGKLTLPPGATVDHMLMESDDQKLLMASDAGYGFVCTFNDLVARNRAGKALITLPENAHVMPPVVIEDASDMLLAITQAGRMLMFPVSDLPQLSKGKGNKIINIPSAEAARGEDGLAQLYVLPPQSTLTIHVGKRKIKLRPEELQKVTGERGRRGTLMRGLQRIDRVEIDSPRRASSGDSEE
T1 sequence (P20083 whole entry): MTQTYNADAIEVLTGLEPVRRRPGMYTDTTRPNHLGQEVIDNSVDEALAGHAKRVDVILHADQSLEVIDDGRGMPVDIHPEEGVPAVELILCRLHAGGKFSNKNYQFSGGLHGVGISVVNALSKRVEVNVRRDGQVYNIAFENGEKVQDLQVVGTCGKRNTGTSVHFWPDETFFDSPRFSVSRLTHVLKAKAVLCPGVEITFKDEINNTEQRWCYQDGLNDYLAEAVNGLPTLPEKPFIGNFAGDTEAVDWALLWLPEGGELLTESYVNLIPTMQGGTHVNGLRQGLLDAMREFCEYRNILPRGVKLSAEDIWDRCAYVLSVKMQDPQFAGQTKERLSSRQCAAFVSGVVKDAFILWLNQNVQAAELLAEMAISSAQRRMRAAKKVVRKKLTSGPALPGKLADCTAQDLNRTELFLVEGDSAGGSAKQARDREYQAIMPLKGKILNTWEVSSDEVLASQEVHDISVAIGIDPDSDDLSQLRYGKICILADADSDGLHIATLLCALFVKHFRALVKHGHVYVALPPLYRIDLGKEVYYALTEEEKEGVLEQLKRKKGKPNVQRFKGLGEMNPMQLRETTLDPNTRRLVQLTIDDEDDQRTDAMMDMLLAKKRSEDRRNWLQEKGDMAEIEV
E. coli DNA gyrase, sequence (P0AES4 whole entry, one chain of several): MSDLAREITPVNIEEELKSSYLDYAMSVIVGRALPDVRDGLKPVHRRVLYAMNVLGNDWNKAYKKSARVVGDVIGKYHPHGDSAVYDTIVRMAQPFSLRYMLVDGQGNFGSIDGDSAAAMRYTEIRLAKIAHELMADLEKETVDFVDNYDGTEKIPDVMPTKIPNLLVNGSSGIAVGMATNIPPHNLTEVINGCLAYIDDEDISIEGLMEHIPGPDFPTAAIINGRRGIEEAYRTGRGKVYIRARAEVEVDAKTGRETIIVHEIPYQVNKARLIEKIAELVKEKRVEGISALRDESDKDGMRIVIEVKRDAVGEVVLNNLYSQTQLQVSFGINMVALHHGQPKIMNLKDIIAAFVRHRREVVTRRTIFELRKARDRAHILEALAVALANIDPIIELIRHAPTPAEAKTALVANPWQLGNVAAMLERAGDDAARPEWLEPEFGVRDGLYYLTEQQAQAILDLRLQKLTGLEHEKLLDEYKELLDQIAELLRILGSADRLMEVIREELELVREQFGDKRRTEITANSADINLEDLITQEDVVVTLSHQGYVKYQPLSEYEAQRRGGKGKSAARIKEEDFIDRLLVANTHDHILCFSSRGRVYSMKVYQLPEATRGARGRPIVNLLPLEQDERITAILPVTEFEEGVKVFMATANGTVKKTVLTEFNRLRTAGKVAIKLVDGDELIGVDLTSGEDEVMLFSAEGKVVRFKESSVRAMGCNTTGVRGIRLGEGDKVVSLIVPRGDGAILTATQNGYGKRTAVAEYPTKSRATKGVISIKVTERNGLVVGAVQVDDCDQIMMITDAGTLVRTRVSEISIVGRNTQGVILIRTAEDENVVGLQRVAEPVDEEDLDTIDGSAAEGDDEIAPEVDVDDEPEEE
T2 sequence (P0A3Y5 whole entry): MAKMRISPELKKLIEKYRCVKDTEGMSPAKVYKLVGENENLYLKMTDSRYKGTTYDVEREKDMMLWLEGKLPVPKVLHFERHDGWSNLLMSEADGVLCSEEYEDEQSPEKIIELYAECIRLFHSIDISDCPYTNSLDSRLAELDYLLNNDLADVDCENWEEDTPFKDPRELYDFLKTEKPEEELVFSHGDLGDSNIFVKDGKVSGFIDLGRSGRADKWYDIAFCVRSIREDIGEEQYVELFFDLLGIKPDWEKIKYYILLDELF

O=C(O)c1cn(C2CC2)c2cc(N3CCNCC3)c(F)cc2c1=O [Cipro, ciprofloxacin, reference compound]
MIC (E. coli R477-100; R477100, read-out: MIC E. Coli R477-100): 0.023 µg/mL (≈ 0.0694 µM)
MIC (E. coli R477-100; [4]): 0.02 µg/mL (≈ 0.0604 µM)
MIC (E. coli ATCC 25922; [5]): 0.02 µg/mL (≈ 0.0604 µM)
MIC (E. coli ATCC 25922; Table 6, read-out: MIC E. coli 25922): 0.023 µg/mL (≈ 0.0694 µM)
MIC (E. coli AG100B; [6]): 0.05 µg/mL (≈ 0.151 µM)
MIC (E. coli AG100B; read-out: MIC E. coli AG100B, Table 6): 0.06 µg/mL (≈ 0.181 µM)
MIC (E. coli AG100A; read-out: MIC E. coli AG100A, Table 6): < 0.003 µg/mL
MIC (B. subtilis ATCC 6633 [1]; [7]): 0.02 µg/mL (≈ 0.0604 µM)
MIC (B. subtilis ATCC 6633 [1]; Table 6, read-out: MIC Bacillus subtilis): 0.023 µg/mL (≈ 0.0694 µM)
MIC (MRSA ATCC 43300; Table 4): 0.2 µg/mL (≈ 0.604 µM)
MIC MRSA ATCC 43300 (MRSA ATCC 43300; Table 4): 0.20 µg/mL (≈ 0.604 µM)
Protein synthesis IC50 [2]: inactive
MIC (B. subtilis ATCC 6633 [3]; [8]): 0.75 µg/mL (≈ 2.26 µM)
MIC (E. coli ATCC 35218; [9]): 0.75 µg/mL (≈ 2.26 µM)

NCC1OC(OC2C(COCc3cn(CCN4CCN(c5cc6c(cc5F)c(=O)c(C(=O)O)cn6C5CC5)CC4)nn3)OC(OC3C(O)C(N)CC(N)C3OC3OC(CN)C(O)C(O)C3N)C2O)C(N)C(O)C1O (stereo not shown) [Compound 1q, 4-((5″-neomycinmethoxy)methyl)-1-(2-(ciprofloxacin)ethyl)-1H-1,2,3-triazole]
MIC E. coli R477-100 (E. coli R477-100; Table 4): 3 µg/mL (≈ 2.85 µM)
MIC E. coli ATCC 25922 (E. coli ATCC 25922; Table 4): 3 µg/mL (≈ 2.85 µM)
MIC E. coli AG100B (E. coli AG100B; [10]): 12 µg/mL (≈ 11.4 µM)
fold more potent than NeoB against E. coli AG100B (E. coli AG100B; from MIC): 32 fold
MIC E. coli AG100A (E. coli AG100A; [10]): 0.38 µg/mL (≈ 0.361 µM)
fold more potent than NeoB against E. coli AG100A (E. coli AG100A; from MIC): 253 fold
MIC B. subtilis ATCC 6633 (B. subtilis ATCC 6633 [1]; Table 4): 0.75 µg/mL (≈ 0.712 µM)
MIC MRSA ATCC 43300 (MRSA ATCC 43300; Table 4): 6 µg/mL (≈ 5.7 µM)
MIC ratio BL21/pETSACG1 to BL21 (E. coli BL21/pETSACG1): 1
MIC BL21/pETSACG1 (E. coli BL21/pETSACG1; expressed enzyme APH(3′)-IIIa): 0.2 μg/ml
MIC BL21 (E. coli BL21): 0.2 µg/mL (≈ 0.19 µM)
MIC ratio XL1 blue/pET9d to XL1 blue (E. coli XL1 blue/pET9d): 4
MIC XL1 blue/pET9d (E. coli XL1 blue/pET9d; expressed enzyme APH(3′)-Ia): 12 μg/ml
MIC ratio XL1 blue/pSF815 to XL1 blue (E. coli XL1 blue/pSF815; MIC resistant strain divided by MIC background strain): 4
MIC XL1 blue/pSF815 (E. coli XL1 blue/pSF815; expressed enzyme AAC(6′)-APH(2″)): 12 μg/ml
MIC XL1 blue (E. coli XL1 blue): 3 µg/mL (≈ 2.85 µM)
IC50 fold superior than Cipro in TopoIV assay (E. coli TopoIV): 1.4 fold
IC50 (E. coli TopoIV; [11]): 7.9 ± 0.25 µM
IC50 [2]: 18.1 ± 4.9 µM
IC50 fold superior than that of Cipro in DNA gyrase assay (E. coli DNA gyrase; general statements name DNA gyrase and TopoIV together): 32 fold
IC50 (E. coli DNA gyrase; read-out: DNA gyrase IC50, supercoiling assay, relaxed pBR322): 0.041 ± 0.009 µM

NC[C@@H]1O[C@H](O[C@H]2[C@@H](O)[C@H](O[C@@H]3[C@@H](O)[C@H](N)C[C@H](N)[C@H]3O[C@H]3O[C@H](CN)[C@@H](O)[C@H](O)[C@H]3N)O[C@@H]2CO)[C@H](N)[C@@H](O)[C@@H]1O [NeoB, neomycin B, reference compound]
MIC (E. coli R477-100; [4]): 24 µg/mL (≈ 39 µM)
MIC (E. coli ATCC 25922; [5]): 48 µg/mL (≈ 78.1 µM)
MIC (E. coli AG100B; [6]): 384 µg/mL (≈ 625 µM)
MIC (E. coli AG100A; read-out: MIC E. coli AG100A, Table 4, kanamycin resistant, APH(3′)-I): 96 µg/mL (≈ 156 µM)
MIC (B. subtilis ATCC 6633 [1]; [7]): 1.5 µg/mL (≈ 2.44 µM)
MIC (MRSA ATCC 43300): 384 µg/mL (≈ 625 µM)
MIC (E. coli BL21/pETSACG1; Escherichia coli, BL21/PETSACG1, read-out: MIC BL21/pETSACG1): 48 µg/mL (≈ 78.1 µM)
MIC ratio BL21/pETSACG1 to BL21 (E. coli BL21/pETSACG1): 8
MIC (E. coli BL21; Escherichia coli, BL21): 6 µg/mL (≈ 9.76 µM)
MIC (E. coli XL1 blue/pET9d; Escherichia coli, XL1BLUE/PET9D, read-out: MIC XL1 blue/pET9d): 96 µg/mL (≈ 156 µM)
MIC ratio XL1 blue/pET9d to XL1 blue (E. coli XL1 blue/pET9d): 16
MIC (E. coli XL1 blue/pSF815; Escherichia coli, XL1BLUE/PSF815, read-out: MIC XL1 blue/pSF815): > 384 µg/mL
MIC (E. coli XL1 blue; Escherichia coli, XL1BLUE, read-out: MIC XL1 blue): 6 µg/mL (≈ 9.76 µM)
kcat (APH(3′)-IIIa enzyme): 2.4 ± 0.1 s⁻¹
TopoIV IC50 (E. coli TopoIV; [11]): inactive
IC50 [2]: 10.5 ± 0.1 µM
MIC (B. subtilis ATCC 6633 [3]; ATCC6633, read-out: MIC 1st passage, B.subtilis ATCC 6633): 0.75 µg/mL (≈ 1.22 µM)
MIC (B. subtilis ATCC 6633 [3]; [8]): 6 µg/mL (≈ 9.76 µM)
Ratio (relative MIC) 15th/1st passage, B.subtilis ATCC 6633 (B. subtilis ATCC 6633 [3]; [12]): 8
MIC (E. coli ATCC 35218; ATCC35218, read-out: MIC 1st passage, E.coli ATCC 35218): 12 µg/mL (≈ 19.5 µM)
MIC (E. coli ATCC 35218; [9]): 48 µg/mL (≈ 78.1 µM)
Ratio (relative MIC) 15th/1st passage, E.coli ATCC 35218 (E. coli ATCC 35218; [12]): 4
DNA gyrase IC50 (E. coli DNA gyrase; supercoiling assay, relaxed pBR322): inactive
